According to PubChem BioAssay AID248 (DTP/NCI, 2004):
Where “and” joins values, the source holds several entries; their conditions need not be identical. Equal entries are not always repeated. Toxic doses and inconclusive results are not listed. Cut-off read from the data, not from the text of the source: active = T/C of 150% or more; inactive = T/C below 125%.

Tested on: L1210 leukemia ip in BDF1 mice, survival T/C
Assay: NCI In Vivo Anticancer Drug Screen. Data for tumor model L1210 Leukemia (intraperitoneal) in B6D2F1 (BDF1) mice
Settings: endpoint: mean survival time, higher = longer survival
Summary of the method: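 Read-out is survival time, reported as the treated-group measurement over the vehicle-control measurement.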

[1] = dose: 100.0 mg/kg/injection, schedule: Q01DX001 (ip), vehicle: carboxymethylcellulose (CMC)
[2] = dose: 200.0 mg/kg/injection, schedule: Q01DX001 (ip), vehicle: carboxymethylcellulose (CMC)
[3] = dose: 400.0 mg/kg/injection, schedule: Q01DX001 (ip), vehicle: carboxymethylcellulose (CMC)
[4] = dose: 100.0 mg/kg/injection, schedule: Q04DX003 (ip), vehicle: Klucel (hydroxypropylcellulose) (HPC)
[5] = dose: 200.0 mg/kg/injection, schedule: Q04DX003 (ip), vehicle: Klucel (hydroxypropylcellulose) (HPC)
[6] = dose: 400.0 mg/kg/injection, schedule: Q04DX003 (ip), vehicle: Klucel (hydroxypropylcellulose) (HPC)
[7] = dose: 100.0 mg/kg/injection, schedule: Q04DX003 (ip), vehicle: saline
[8] = dose: 200.0 mg/kg/injection, schedule: Q04DX003 (ip), vehicle: saline
[9] = dose: 400.0 mg/kg/injection, schedule: Q04DX003 (ip), vehicle: saline
[10] = dose: 25.0 mg/kg/injection, schedule: Q01DX009 (ip), vehicle: saline with Tween-80
[11] = dose: 50.0 mg/kg/injection, schedule: Q01DX009 (ip), vehicle: saline with Tween-80
[12] = dose: 50.0 mg/kg/injection, schedule: Q04DX003 (ip), vehicle: saline with Tween-80
[13] = dose: 100.0 mg/kg/injection, schedule: Q01DX009 (ip), vehicle: saline with Tween-80
[14] = dose: 100.0 mg/kg/injection, schedule: Q04DX003 (ip), vehicle: saline with Tween-80
[15] = dose: 100.0 mg/kg/injection, schedule: Q01DX009 (ip), vehicle: Klucel (hydroxypropylcellulose) (HPC)
[16] = dose: 200.0 mg/kg/injection, schedule: Q01DX009 (ip), vehicle: Klucel (hydroxypropylcellulose) (HPC)
[17] = dose: 400.0 mg/kg/injection, schedule: Q01DX009 (ip), vehicle: Klucel (hydroxypropylcellulose) (HPC)
[18] = dose: 100.0 mg/kg/injection, schedule: Q01DX001 (ip), vehicle: saline
[19] = dose: 200.0 mg/kg/injection, schedule: Q01DX001 (ip), vehicle: saline
[20] = dose: 200.0 mg/kg/injection, schedule: Q01DX009 (ip), vehicle: saline with Tween-80
[21] = dose: 200.0 mg/kg/injection, schedule: Q04DX003 (ip), vehicle: saline with Tween-80

Measured: T/C

CCSCCC(N)C(=O)O (stereo not given)
inactive: dose: 10.25 mg/kg/injection, schedule: Q01DX Z (ip), vehicle: carboxymethylcellulose (CMC) 97 % of control | dose: 18.75 mg/kg/injection, schedule: Q01DX Z (ip), vehicle: carboxymethylcellulose (CMC) 91 % of control | dose: 20.5 mg/kg/injection, schedule: Q01DX Z (ip), vehicle: carboxymethylcellulose (CMC) 113 % of control | dose: 37.5 mg/kg/injection, schedule: Q01DX Z (ip), vehicle: carboxymethylcellulose (CMC) 93 % of control | dose: 41.0 mg/kg/injection, schedule: Q01DX Z (ip), vehicle: carboxymethylcellulose (CMC) 103 % of control | dose: 75.0 mg/kg/injection, schedule: Q01DX Z (ip), vehicle: carboxymethylcellulose (CMC) 96 % of control | dose: 82.0 mg/kg/injection, schedule: Q01DX Z (ip), vehicle: carboxymethylcellulose (CMC) 103 % of control | [1] 102 % of control | dose: 150.0 mg/kg/injection, schedule: Q01DX Z (ip), vehicle: carboxymethylcellulose (CMC) 100 % of control | [2] 107 % of control | [3] 95 % of control

CCCCCCCCCCCCCCCCNc1cccc2ccccc12
inactive: [4] 90 % of control | [5] 90 % of control | [6] 91 % of control

O=S(Cc1ncc2cnccn12)c1ccccc1 (stereo not given)
inactive: dose: 50.0 mg/kg/injection, schedule: Q01DX005 (ip), vehicle: saline 110 % of control | dose: 100.0 mg/kg/injection, schedule: Q01DX005 (ip), vehicle: saline 104 % of control | [7] 101 % of control | dose: 200.0 mg/kg/injection, schedule: Q01DX005 (ip), vehicle: saline 104 % of control | [8] 105 % of control | dose: 400.0 mg/kg/injection, schedule: Q01DX005 (ip), vehicle: saline 105 % of control | [9] 105 % of control

N#CC(C(N)=O)c1ccccc1 (stereo not given)
inactive: [10] 86 % of control | dose: 25.0 mg/kg/injection, schedule: Q04DX003 (ip), vehicle: saline with Tween-80 99 % of control | [11] 94 % of control | [12] 100 % of control | [13] 90 % of control | [14] 98 % of control and 100 % of control

CC(C)OP(=O)(NC12CC3CC(CC(C3)C1)C2)OC(C)C
inactive: [15] 103 % of control | [4] 95 % of control | [16] 100 % of control | [5] 96 % of control | [17] 90 % of control | [6] 100 % of control

CCCCCCCNC1=C(C)C(=O)C(NCCCCCCC)=C(C)C1=O
inactive: [1] 96 % of control | [18] 93 % of control | [2] 96 % of control | [19] 96 % of control | [3] 89 % of control | dose: 400.0 mg/kg/injection, schedule: Q01DX001 (ip), vehicle: saline 93 % of control

CN(C)C(=O)c1cccc(NCc2ccc3nc(N)nc(N)c3c2)c1
inactive: [11] 93 % of control | [13] 96 % of control and 88 % of control | [14] 97 % of control | [20] 96 % of control | [21] 92 % of control | dose: 400.0 mg/kg/injection, schedule: Q04DX003 (ip), vehicle: saline with Tween-80 92 % of control

Nc1cc2ccncc2c2ccccc12
inactive: dose: 50.0 mg/kg/injection, schedule: Q01DX009 (ip), vehicle: saline sonified 98 % of control | dose: 100.0 mg/kg/injection, schedule: Q01DX009 (ip), vehicle: saline sonified 104 % of control | [4] 97 % of control | dose: 200.0 mg/kg/injection, schedule: Q01DX009 (ip), vehicle: saline sonified 106 % of control | [5] 108 % of control

O=C1C2CCC(C2)C1C(O)(C(F)(F)F)C(F)(F)F (stereo not given)
inactive: [10] 101 % of control | [11] 100 % of control | [12] 101 % of control | [13] 91 % of control | [14] 98 % of control | [21] 91 % of control

CCOC(=O)C(C(=O)OCC)N(CC)CC
inactive: [15] 96 % of control | [4] 98 % of control | [5] 93 % of control | [17] 95 % of control | [6] 109 % of control

CCOC(=O)N1C=Cn2c(cnc2C)C1O (stereo not given)
inactive: dose: 50.0 mg/kg/injection, schedule: Q01DX009 (ip), vehicle: saline 94 % of control | dose: 100.0 mg/kg/injection, schedule: Q01DX009 (ip), vehicle: saline 94 % of control | dose: 100.0 mg/kg/injection, schedule: Q01DX009 (ip), vehicle: water 102 % of control | [7] 102 % of control | dose: 200.0 mg/kg/injection, schedule: Q01DX009 (ip), vehicle: saline 100 % of control and 91 % of control | dose: 200.0 mg/kg/injection, schedule: Q01DX009 (ip), vehicle: water 90 % of control | [8] 109 % of control | dose: 400.0 mg/kg/injection, schedule: Q01DX009 (ip), vehicle: water 93 % of control | [9] 107 % of control

CCCCCCCCCCC(=O)CCC
inactive: dose: 50.0 mg/kg/injection, schedule: Q01DX009 (ip), vehicle: Klucel (hydroxypropylcellulose) (HPC) 92 % of control | [15] 97 % of control | [4] 95 % of control and 98 % of control | [5] 90 % of control | [6] 95 % of control and 100 % of control

C[S+]1CCSCC1
inactive: dose: 25.0 mg/kg/injection, schedule: Q04DX003 (ip), vehicle: saline 90 % of control | dose: 50.0 mg/kg/injection, schedule: Q04DX003 (ip), vehicle: saline 87 % of control | [7] 117 % of control

O=S(=O)(N=C1C(Cl)=C(Cl)C(=NS(=O)(=O)c2ccccc2)C(Cl)=C1Cl)c1ccccc1
inactive: [15] 98 % of control | [16] 100 % of control | [17] 101 % of control

O=C(OC1CC2CC1C1CCCC21)c1ccc([N+](=O)[O-])cc1 (stereo not given)
inactive: dose: 50.0 mg/kg/injection, schedule: Q01DX001 (ip), vehicle: carboxymethylcellulose (CMC) 90 % of control | [1] 87 % of control | [15] 104 % of control | [2] 92 % of control | [16] 100 % of control | [3] 95 % of control | [17] 97 % of control

COc1ccc(CC[n+]2cccc(C(C)=O)c2)cc1OC
inactive: dose: 75.0 mg/kg/injection, schedule: Q01DX001 (ip), vehicle: saline 103 % of control | dose: 150.0 mg/kg/injection, schedule: Q01DX001 (ip), vehicle: saline 106 % of control | dose: 300.0 mg/kg/injection, schedule: Q01DX001 (ip), vehicle: saline 113 % of control

CSc1nc(N)c(C#N)cc1C#N
inactive: [13] 88 % of control | [20] 88 % of control | dose: 400.0 mg/kg/injection, schedule: Q01DX009 (ip), vehicle: saline with Tween-80 88 % of control

CCCCNC(=O)NNC(=O)CCCC(=O)NNC(=O)NCCCC
inactive: dose: 50.0 mg/kg/injection, schedule: Q01DX001 (ip), vehicle: saline 100 % of control | [18] 93 % of control | [19] 100 % of control

COC(=O)c1cccc2cnccc12
inactive: [4] 107 % of control | [5] 110 % of control | [6] 96 % of control
